Results on 1 compound are retold here after article PMC3665789 (PLoS ONE, 2013).

One data set concerns HIV-2 ROD (R5/X4). To be noted: read-out: EC50 (µM ± SEM), MT-4 cells, MTS/PES method.
In data set [1] the test system is HSV-1 wild-type RV-175 (clinical isolate). To be noted: HEL cells; HSV-1 RV-175; CPE.
The test system of data set [2] is HSV-1 wild-type KOS (reference strain). To be noted: HEL cells; HSV-1 KOS; reduction of virus-induced CPE by 50%.
The subject of data set [3] is drug-resistant HIV strains. As to conditions: read-out: Median EC50; median over 6 drug-resistant HIV-1 strains in MT-4.
The subject of a further data set is HIV-1 IIIB^FGMres. (X4). To be noted: read-out: EC50 (µM ± SEM); MT-4 cells; IIIB resistant to feglymycin (FGM); MTS/PES.
A further data set deals with HIV-1 HE (R5/X4). As to conditions: read-out: EC50 (µM ± SEM), PBMCs, p24 Ag ELISA.
The next data set has as its system HIV-1 IIIB. The data set can be described thus: Time-of-drug-addition study, HIV. It is filed as cell-based. As to conditions: MT-4 cells, 48 µM LabyA1. The procedure:
The time-of-drug-addition (TOA) experiments were performed as described. In brief, 1×10^6 MT-4 cells/ml were infected with HIV-1 X4 IIIB at a multiplicity of infection (MOI) of 0.5. The compounds were added at different time points in a range from 0 to 26 h post-infection. After 31 h, HIV-1 replication was detected by p24 HIV-1 Ag ELISA as described above. The reference compounds were added at 100 times their EC50-values, as obtained in the MT-4 cell antiviral assay.

The test system of the next data set is HIV-1 NL4.3. Kind of data set: Pre-incubation of MT-4 cells with compound, wash, then HIV-1 NL4.3 infection. It is filed as cell-based. As to conditions: MT-4 cells pre-incubated 2 h at 37°C, washed, infected with HIV-1 NL4.3; 5 days; control 100% CPE.
In another data set the test system is HIV-1 NL4.3^T20res. (X4). As to conditions: read-out: EC50 (µM ± SEM); MT-4 cells; NL4.3 resistant to enfuvirtide (T20); MTS/PES.
The subject of the next data set is PBMCs. The data set can be described thus: Bio-Plex cytokine/chemokine detection assay. Type of data set: cell-based. As to conditions: 24 h; 9.6 µM LabyA1 versus 0.078 µM PHA; 27-plex. On the procedure: Freshly isolated PBMCs from 4 individual donors were incubated for 24 h with 9.6 µM LabyA1 or 0.078 µM PHA. The cytokine/chemokine concentration in the cell culture supernatant was determined by the Bio-Plex 200 System (Bio-Rad, Hercules, CA) using the Bio-Plex Human Cytokine 27-Plex assay as described earlier.

In data set [4] the test system is HIV-1 CI#17 (clinical isolate; X4). To be noted: PBMCs; CI#17, group M subtype B; p24 Ag ELISA. (In general: An ELISA detects its analyte on a solid surface through an enzyme-linked reagent.)
For a further data set, the system named is HIV-1 NL4.3^AZTres. (X4). As to conditions: read-out: EC50 (µM ± SEM); MT-4 cells; NL4.3 resistant to azidothymidine (AZT); MTS/PES.
Another data set has as its system HIV-1 NL4.3^RALres. (X4). As to conditions: read-out: EC50 (µM ± SEM); MT-4 cells; NL4.3 resistant to raltegravir (RAL); MTS/PES.
The subject of a further data set is HIV-1 NL4.3 (X4). As to conditions: read-out: EC50 (µM ± SEM), MT-4 cells, MTS/PES method.
Another data set deals with HSV. To be noted: read-out: anti-HSV activity EC50 range; range over HSV-1 and HSV-2 strains; CPE in HEL cells.
The next data set relates to HIV-1 BaL (R5). As to conditions: read-out: EC50 (µM ± SEM), MDM, p24 Ag ELISA.
For another data set, the target named is T1, CD4 (Homo sapiens, UniProt P01730).
T1 construct: endogenous in cells; host or cells: SupT1 T cells (ATCC)
Kind of data set: Anti-CD4 mAb binding on SupT1 cells (flow cytometry). As to conditions: SupT1 T cells; 9.6 µM or 1.9 µM. The procedure:
To determine the interaction of LabyA1 with CD4, SupT1 cells (100 µl; 3×10^6 cells/ml) were incubated for 20 min at 4°C with 9.6 µM, 1.9 µM or 0 µM LabyA1. After extensive washing with PBS/FCS2% (PBS supplemented with 2% FCS), anti-CD4-PE conjugated mAbs RPA-T4 (eBioscience, Vienna, Austria), MT441 (Ancell, Enzo Life sciences) and OKT-4 (eBioscience) were added for 30 min at 4°C. For aspecific background staining, cells were incubated with SimulTest™ Control (IgGγ1-FITC/IgGγ2a-PE) (BD Biosciences). After washing, and fixation with 1% formaldehyde solution, samples were analyzed using the FACSCalibur and CellQuest software (BD Biosciences). The same protocol was applied for anti-CXCR4 evaluation using the fluorochrome conjugated mAbs 12G5-PE and 2B11-FITC (both BD Biosciences).
(A flow cytometer gives signals particle by particle.)

Data set [5] deals with HIV-1 NL4.3^AMD3100res. (X4). As to conditions: read-out: EC50 (µM ± SEM); MT-4 cells; NL4.3 resistant to AMD3100; MTS/PES.
The subject of data set [6] is HSV-2 wild-type G (reference strain). To be noted: HEL cells; HSV-2 G; CPE.
The test system of data set [7] is HIV-1 UG273 (clinical isolate; R5). To be noted: PBMCs; UG273, group M subtype A; p24 Ag ELISA.

Where two headings read alike, the source gives them in different places.

Description for HIV-1 BaL (R5): Afterwards, the non-adherent cells were gently mixed and removed from the adherent cell layer. The cells were carefully washed and this washing step was repeated after 6 days of incubation at 37°C. The adherent cells were then infected with HIV-1 R5 BaL.
MDM were seeded in a 48-well plate in 1 ml medium. […] Each concentration was tested in triplicate. After an incubation of 30 minutes at 37°C, 1000 pg/well of p24 Ag of HIV-1 R5 BaL was added. Three weeks post-infection, supernatant was collected and viral replication evaluated by p24 HIV-1 Ag ELISA.

Regarding `C/C=C1\NC(=O)[C@H](Cc2ccccc2)NC(=O)[C@@H]2CCCN2C(=O)[C@H](C(C)C)NC(=O)[C@H](Cc2c[nH]c3ccccc23)NC(=O)[C@]23CSC[C@H](NC1=O)C(=O)N[C@H](C(=O)O)CSSC[C@H](NC(=O)[C@@H]1CSC[C@]4(C[C@H](N)C(=O)N[C@@H](CC(N)=O)C(=O)N[C@@H](C)C(=O)N4)C(=O)N[C@@H](C(C)C)C(=O)N[C@@H](Cc4c[nH]c5ccccc45)C(=O)N[C@@H](CCC(=O)O)C(=O)N1)C(=O)N[C@@H](C2)C(=O)N[C@@H]([C@@H](C)O)C(=O)NCC(=O)N3` [LabyA1, labyrinthopeptin A1], the EC50 came out at 1.9 ± 0.7 µM in the data set on HIV-2 ROD (R5/X4); 2.8 ± 0.5 µM in [1]; 0.56 ± 0.05 µM in data set [2]; 2.1 µM in [3]; 1.9 ± 0.1 µM in the data set with HIV-1 IIIB^FGMres. (X4); 1.8 ± 0.3 µM in the data set on HIV-1 HE (R5/X4). The EC50 with HIV-1 NL4.3^T20res. (X4) is 2.3 ± 0.3 µM; with HIV-1 clinical isolates (read-out: EC50 range, range over 9 HIV-1 clinical isolates in PBMCs), 0.7 to 1.9 µM; in the data set with HIV-1 clinical isolates (read-out: Median EC50, median over 9 HIV-1 clinical isolates in PBMCs) it was 1 µM; in data set [4], 1 ± 0.2 µM; with HIV-1 NL4.3^AZTres. (X4), 1.1 ± 0.1 µM; with HIV-1 NL4.3^RALres. (X4), 0.88 ± 0.08 µM. Moreover, the EC50 with HIV-1 NL4.3 (X4) is 1.7 ± 0.4 µM; in the data set with HSV, 0.29 to 2.8 µM; with HIV-1 BaL (R5) it was 2.4 ± 0.8 µM; in data set [5] it was 2.4 ± 0.5 µM; in [6] it was 0.32 ± 0.05 µM; in [7], 1.9 ± 0.1 µM. For the same compound, the time-of-drug-addition profile entry with HIV-1 IIIB is “prevented HIV infection at an early time point somewhat comparable with AMD3100”. Further, the “% CPE after pre-incubation of cells and removal of compound” value in the data set with HIV-1 NL4.3 stood at 96.8±3.2 % CPE. In the data set on PBMCs, the “cytokine/chemokine response of treated PBMCs” value was “much weaker, if any”. In addition, on CD4, the “effect on binding of anti-CD4 mAbs RPA-T4, MT441 and OKT4” value is given as “no effect”.
